One series has as its target FGFR1 (Homo sapiens (Human), UniProt P11362). The series is described as follows: TR-FRET kinase inhibition assay, FGFR1. The class given is biochemical. As to conditions: ATP Km concentration (30 μM). The procedure:
(§1) To measure the IC50 values of the compounds against FGFR1, FGFR2, FGFR3, FGFR4, and FGFR2 V564F at ATP Km concentrations by TR-FRET method.
(§2) TR-FRET (time-resolved fluorescence resonance energy transfer) method was used to detect the inhibitory activity of the compounds on FGFR1, FGFR2, FGFR3, FGFR4, and FGFR2 V564F kinase region fragments. The highest detection concentration of the compounds in 5 kinase experiments was 1000 nM, which was diluted in 3 folds, with a total of 11 concentrations (1000 nM to 0.017 nM). A kinase buffer (50 mM HEPES pH 7.5, 1 mM EGTA, 10 mM MgCl2, 2 mM DTT, and 0.01% Tween-20) was used to prepare 4× enzyme solution, 4× compound solutions diluted in gradient, and a 2×ATP/Peptide substrate solution. To a 384-well plate, 2.5 μL of enzyme solution and 2.5 μL of diluted […] compound solution were added, and 5 μL of 2×ATP/Peptide substrate solution was then added. After reacting at room temperature for 60 minutes for FGFR1, FGFR2, FGFR3, and FGFR2 V564F kinases, and 120 minutes for FGFR4 kinase, 10 μL of a 2× termination and detection mixed liquid prepared with 1×LANCE detection buffer with an EDTA concentration of 20 mM and a Europium-anti-phosphotyrosine (PT66) concentration of 2 nM was added to each well of the plate. After reacting at room temperature for 60 minutes for FGFR1, FGFR2, FGFR3, and FGFR4, and 30 minutes for FGFR2 V564F, the fluorescence signal value in each well of the plate was measured by a microplate reader.
(§3) 1) Inhibition rate (%): Calculation was performed on the raw data (665 nm/620 nm reading ratio) according to the following formula to obtain the inhibition rate. Inhibition rate %=[(mean value in positive control well−value in sample well)/(mean value in positive control well−mean value in negative control well)]×100, wherein the positive control well was a reaction well without a compound […], and the negative control well was a reaction wells without an enzyme.
(§4) 2) Curve fitting: Log(inhibitor) vs. response—Variable slope (four parameters) in GraphPad Prism 6 was used for fitting equation analysis of the compound concentration and the corresponding inhibition rate, and the curve was fitted to obtain the IC50 values of the compounds.
For orientation: TR-FRET usually uses a lanthanide donor and a delayed reading to cut background.

In a further series the target is FGFR2 (Homo sapiens (Human), UniProt P21802). The series is described as follows: TR-FRET kinase inhibition assay, FGFR2. Type of series: biochemical. As to conditions: ATP Km concentration (30 μM). On the procedure: as §1, §2, §3, §4
For the next series, the target named is FGFR2 V564F (Homo sapiens (Human), UniProt P21802, V564F). The series is described as follows: TR-FRET kinase inhibition assay, FGFR2 V564F. The class given is biochemical. Conditions: ATP Km concentration (20 μM). The procedure:
as §1, §2, §3, §4

Series [1] relates to BaF3 FGFR2-BICC1 V564F cells. The series is described as follows: CellTiter-Glo cell proliferation inhibition, BaF3 FGFR2-BICC1 V564F. Conditions: Mus musculus, 72 h, read-out: BaF3 FGFR2-BICC1 V564F inhibitory activity IC50. Type of series: cell-based. On the procedure: To evaluate inhibitory effects of the compounds on the proliferation of NCI-H716, SNU-16 and BaF3-FGFR2-BICC1 V564F cells by cell proliferation inhibition experiments.
CellTiter-Glo method was used to detect inhibitory effects of the compounds on the proliferation of NCI-H716, SNU-16 and BaF3 FGFR2-BICC1 V564F cells. The highest detection concentration of the compounds was 1000 nM, which was diluted in 3 folds, with a total of 9 concentrations (1000 nM to 0.15 nM). After the cells were plated at an appropriate density, compounds were added the next day and incubated for 72 h before detection using the […] detection kit.
1) Inhibition rate (%): Inhibition rate %=[(mean value in positive control well−value in sample well)/(mean value in positive control well−mean value in negative control well)]×100, wherein the positive control well was a reaction well without a compound […], and the negative control well was a reaction wells without an enzyme.
as §4
For orientation: ATP-based viability assays read luminescence as a measure of living cells.

The nature of series [2]: Pharmacokinetic experiment in SD rats after oral administration. The class given is in vivo. As to conditions: 5 mg/kg, plasma. On the procedure:
To study the pharmacokinetic behavior of the compounds of the present invention in the rat body (plasma) after oral administration at a dose of 5 mg/kg using SD rats as test animals.
3 SD rats/group, male, from Shanghai Jiesijie Experimental Animal Co., Ltd., animal production license number (SCXK (Shanghai) 2013-0006 N0.311620400001794).
PO, 10% solutol HS15-0.5% CMC-Na was dissolved by ultrasound and prepared into a clear solution or homogeneous suspension.
3 SD rats/group, male; p.o. respectively at a dose of 5 mg/kg and an administration volume of 10 mL/kg after the […] were fasted overnight.
After oral administration to rats, at 0.25, 0.5, 1, 2, 4, 6, 8 and 24 hours, 0.2 mL of blood was collected from the jugular vein, placed in an EDTA-K2 test tube, centrifuged at 6000 rpm for 6 min at 4° C. to separate the plasma, which was stored at −80° C.
1) 100 μL of acetonitrile was added to 20 μL of plasma sample for pelleting, and it was mixed and centrifuged at 3500×g for 5-20 min.
2) The treated supernatant solution was taken and subjected to LC/MS/MS to analyze the concentrations of the test compounds. LC/MS/MS analysis instrument: AB Sciex API 4000 Qtrap.
• Liquid phase conditions: Shimadzu LC-20AD pump • Chromatographic column: Waters Xbridge C18 5 μm, 4.6×50 mm mobile phase: liquid A was 0.1% aqueous formic acid solution, and liquid B was methanol • Flow rate: 1.0 mL/min • Elution time: 0-4.0 min, the eluent was as follows: […]

Chain of FGFR1 (P11362 478-767): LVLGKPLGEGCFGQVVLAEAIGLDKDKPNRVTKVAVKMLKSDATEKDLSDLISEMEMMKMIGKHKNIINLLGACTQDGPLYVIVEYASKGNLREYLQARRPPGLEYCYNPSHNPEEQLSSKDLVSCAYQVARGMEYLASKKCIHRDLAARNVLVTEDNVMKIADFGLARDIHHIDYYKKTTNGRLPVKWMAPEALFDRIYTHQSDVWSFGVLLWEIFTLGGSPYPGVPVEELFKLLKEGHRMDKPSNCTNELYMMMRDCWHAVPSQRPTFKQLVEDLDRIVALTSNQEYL
Chain of FGFR2 V564F (P21802 481-770 V564F): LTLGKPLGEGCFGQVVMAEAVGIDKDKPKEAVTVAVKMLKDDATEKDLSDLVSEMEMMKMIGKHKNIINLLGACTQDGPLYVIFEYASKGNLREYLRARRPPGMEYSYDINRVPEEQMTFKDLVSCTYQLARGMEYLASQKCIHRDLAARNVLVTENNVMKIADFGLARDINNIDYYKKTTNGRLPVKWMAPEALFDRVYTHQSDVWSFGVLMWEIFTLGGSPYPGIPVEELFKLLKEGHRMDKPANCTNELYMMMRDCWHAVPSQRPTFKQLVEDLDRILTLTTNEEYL
Chain of FGFR2 (P21802 481-770): as the sequence (P21802 481-770 V564F) above, with F84V counted along it

As usually defined, the IC50 is the concentration that inhibits the measured activity by half. As for `C=CC(=O)N1CC[C@H](n2nc(C#Cc3cc4ncn(C5CC5)c4cc3F)c3c(N)ncc(-c4nccs4)c32)C1` [Example 34, (S)-1-(3-(4-amino-3-((1-cyclopropyl-6-fluoro-1H-benzo[d]imidazol-5-yl)ethynyl)-7-(thiazol-2-yl)-1H-pyrazolo[4,3-c]pyridin-1-yl)pyrrolidin-1-yl)prop-2-en-1-one], the IC50 came to 6.6 nM against FGFR1, 3.2 nM on FGFR2, 2.2 nM on FGFR2 V564F and 2.9 nM in series [1].

Regarding `C=CC(=O)N1CC[C@H](n2nc(C#Cc3cc4nc(C)n(C5CC5)c4cc3F)c3c(N)ncc(C(C)=O)c32)C1` [Example 55, (S)-1-(3-(7-acetyl-4-amino-3-((1-cyclopropyl-6-fluoro-2-methyl-1H-benzo[d]imidazol-5-yl)ethynyl)-1H-pyrazolo[4,3-c]pyridin-1-yl)pyrrolidin-1-yl)prop-2-en-1-one], the IC50 against FGFR1 turned out to be 4.4 nM; against FGFR2, 2.8 nM; on FGFR2 V564F it was 1 nM; in series [1], 2.2 nM.

On to `C=CC(=O)N1CC[C@H](n2nc(C#Cc3cc4ncn(CC)c4cc3F)c3c(N)ncc(-c4nccs4)c32)C1` [Example 22, (S)-1-(3-(4-amino-3-((1-ethyl-6-fluoro-1H-benzo[d]imidazol-5-yl)ethynyl)-7-(thiazol-2-yl)-1H-pyrazolo[4,3-c]pyridin-1-yl)pyrrolidin-1-yl)prop-2-en-1-one], for which the IC50 on FGFR1 worked out at 6.5 nM; against FGFR2, 1.6 nM; at FGFR2 V564F it was 0.8 nM.

In general, MRT refers to the average time that molecules of a dose stay in the body. Regarding `C=CC(=O)N1CC[C@H](n2nc(C#Cc3cc4ncn(C5CC5)c4cc3F)c3c(N)ncc(C(=O)CC)c32)C1` [Example 48, (S)-1-(3-(4-amino-3-((1-cyclopropyl-6-fluoro-1H-benzo[d]imidazol-5-yl)ethynyl)-7-propionyl-1H-pyrazolo[4,3-c]pyridin-1-yl)pyrrolidin-1-yl)prop-2-en-1-one], the IC50 came out at 1.7 nM at FGFR2, 0.8 nM at FGFR2 V564F and 1.4 nM in series [1]. Further, in series [2] (male, Sprague-Dawley (SD), rat, po, read-out: Area under the curve AUC0-t), the AUC(0-t) is 4120 ng·h/mL. Also, in series [2] (male, Sprague-Dawley (SD), rat, po, read-out: Area under the curve AUC0-∞), the AUC(0-inf) was determined as 4150 ng·h/mL. Besides, the half-life in series [2] (male, Sprague-Dawley (SD), rat, po, read-out: Half-life t1/2 (converted)) is 3.9 h. Besides, in series [2] (male, Sprague-Dawley (SD), rat, po, read-out: Mean residence time MRT), the MRT turned out to be 4.2 h. Besides, the Cmax in series [2] (male, Sprague-Dawley (SD), rat, po, read-out: Plasma concentration Cmax) worked out at 795 ng/mL. The same molecule returned a Time to peak tmax in series [2] (p.o.) of 2 h.

Regarding `C=CC(=O)N1CC[C@H](n2nc(C#Cc3c(F)cc4c(ncn4C)c3F)c3c(N)ncc(-c4cscn4)c32)C1` [Example 29, (S)-1-(3-(4-amino-3-((4,6-difluoro-1-methyl-1H-benzo[d]imidazol-5-yl)ethynyl)-7-(thiazol-4-yl)-1H-pyrazolo[4,3-c]pyridin-1-yl)pyrrolidin-1-yl)prop-2-en-1-one], the IC50 against FGFR1 amounted to 7.1 nM; on FGFR2, 1.5 nM; against FGFR2 V564F, 3.6 nM.

Take `C=CC(=O)N1CC[C@H](n2nc(C#Cc3c(F)cc4c(ncn4C)c3F)c3c(N)ncc(C(C)=O)c32)C1` [Example 31, (S)-1-(3-(7-acetyl-4-amino-3-((4,6-difluoro-1-methyl-1H-benzo[d]imidazol-5-yl)ethynyl)-1H-pyrazolo[4,3-c]pyridin-1-yl)pyrrolidin-1-yl)prop-2-en-1-one]: the IC50 against FGFR1 worked out at 3.5 nM; against FGFR2 it was 1.2 nM; against FGFR2 V564F it was 0.8 nM; in series [1] it was 1.4 nM.

`C=CC(=O)N1CC[C@H](n2nc(C#Cc3ccc4c(c3)ncn4CC)c3c(N)ncc(C(=O)CC)c32)C1` [Example 57, (S)-1-(3-(4-amino-3-((1-ethyl-1H-benzo[d]imidazol-5-yl)ethynyl)-7-propionyl-1H-pyrazolo[4,3-c]pyridin-1-yl)pyrrolidin-1-yl)prop-2-en-1-one]: the IC50 against FGFR1 amounted to 5.6 nM; against FGFR2, 1.3 nM; at FGFR2 V564F, 0.5 nM; in series [1], 2.5 nM.

As for `C=CC(=O)N1CC[C@H](n2nc(C#Cc3ccc4ccnn4c3)c3c(N)ncc(C(=O)C4CC4)c32)C1` [Example 73, (S)-1-(3-(4-amino-7-(cyclopropanecarbonyl)-3-(pyrazolo[1,5-a]pyridine-6-ethynylene)-1H-pyrazolo[4,3-c]pyridin-1-yl)pyrrolidine-1-methyl)prop-2-en-1-one], the IC50 came out at 2.3 nM on FGFR1, 0.7 nM at FGFR2 and 0.9 nM against FGFR2 V564F.

For the molecule `C=CC(=O)N1CC[C@H](n2nc(C#Cc3cc4ncn(C5CC5)c4cc3Cl)c3c(N)ncc(C(C)=O)c32)C1` [Example 44, (S)-1-(3-(7-acetyl-4-amino-3-((6-chloro-1-cyclopropyl-1H-benzo[d]imidazol-5-yl)ethynyl)-1H-pyrazolo[4,3-c]pyridin-1-yl)pyrrolidin-1-yl)prop-2-en-1-one], the IC50 against FGFR1 stood at 4.4 nM; at FGFR2 it was 2.2 nM; against FGFR2 V564F, 0.4 nM; in series [1], 0.8 nM.

In the case of `C=CC(=O)N1CC[C@H](n2nc(C#Cc3cc4nc(C)n(C5CC5)c4cc3Cl)c3c(N)ncc(C(C)=O)c32)C1` [Example 54, (S)-1-(3-(7-acetyl-4-amino-3-((6-chloro-1-cyclopropyl-2-methyl-1H-benzo[d]imidazol-5-yl)ethynyl)-1H-pyrazolo[4,3-c]pyridin-1-yl)pyrrolidin-1-yl)prop-2-en-1-one], the half-inhibitory concentration (IC50) on FGFR1 turned out to be 5.5 nM; at FGFR2, 3.4 nM; against FGFR2 V564F, 0.9 nM; in series [1], 2.2 nM.

On to `[2H]C([2H])([2H])n1cnc2cc(C#Cc3nn([C@H]4CCN(C(=O)C=C)C4)c4c(-c5nccs5)cnc(N)c34)c(F)cc21` [Example 25, (S)-1-(3-(4-amino-3-((6-fluoro-1-(methyl-d3)-1Hbenzo[d]imidazol-5-yl)ethynyl)-7-(thiazol-2-yl)-1Hpyrazolo[4,3-c]pyridin-1-yl)pyrrolidin-1-yl)prop-2-en-1-one], for which the IC50 at FGFR1 was determined as 5.7 nM; against FGFR2, 1.5 nM; against FGFR2 V564F, 0.6 nM.

`C=CC(=O)N1CC[C@H](n2nc(C#Cc3ccc4c(c3)ncn4C)c3c(N)ncc(C(=O)C(C)C)c32)C1` [Example 66]: the IC50 on FGFR1 turned out to be 6.8 nM; against FGFR2 it was 2.9 nM; against FGFR2 V564F, 0.8 nM; in series [1], 2.8 nM.

For the origin of these results see patent US20250152564A1, “PROPYLENE KETONE-CONTAINING BIOINHIBITOR, PREPARATION METHOD THEREFOR, AND USE THEREOF” (SHANGHAI HANSOH BIOMEDICAL CO., LTD., priority 2022, published 2025).
